Results: PubChem BioAssay AID2060895 (Molecular Pharmacology Branch, DTP, NCI, 2025)
Where “and” joins values, the source holds several entries; their conditions need not be identical. Equal entries are not always repeated.

Tested on: PDC 899932-113-R3-J6 complex spheroid viability
Test: Anticancer human tumor 899932-113-R3-J6-PDC patient-derived melanoma cell line growth inhibition [RAS]
Details: for viability, T/C: stronger effect = lower value; active = viability on the fitted dose curve at most 10% of control; inactive = the rest
Text: RAS pathway inhibitors in Combinations in Complex Spheroids
A high-throughput screen of multi-cell type tumor spheroids was designed to identify active combinations of RAS pathway inhibitors and targeted small molecules. Complex spheroids include a stromal component modeled by human endothelial cells (HUVEC) and fibroblasts modeled by human mesenchymal stem cells (MSCs). The concentration ranges selected for each drug and investigational agent were based upon clinically achievable concentrations if the clinical Cmax of the agent was known.
Compounds. The drugs and investigational agents: abemaciclib (NSC768073), cobimetinib (NSC768068), divarasib (GDC6063, NSC841802), docetaxel (NSC628503), GDC-1971 (RLY-1971, NSC841576), gemcitabine (NSC613327), inavolisib (NSC800729), ipatasertib (NSC767898), KB-0742 (NSC834161), MRTX-1133 (NSC836407), osimertinib (NSC779217), RMC-4630 (NSC839698), RMC-6236 (NSC851965), RMC-6291 (NSC852671), Ro-3306 (NSC812927), sapanisertib (NSC764658), SN-38 (NSC673596), staurosporine (NSC755774), SY5609 (NSC837396), and tovorafenib (DAY101, NSC766906), were obtained from the National Cancer Institute (NCI) Developmental Therapeutics Program Chemical Repository. The FDA-approved anticancer drug set is available from the NCI Developmental Therapeutics Program. […] The stock solutions were prepared in dimethyl sulfoxide (DMSO, Sigma-Aldrich, St. Louis, MO, cat. D2650) at 800-fold the tested concentration and stored at -70 degrees C prior to their use. All drugs and investigational agents were tested over a range starting from a high concentration at or near the clinical Cmax and decreasing in half-log increments. If the clinical Cmax for an agent had not been determined, the highest concentration tested was 10 microM.
Cell Culture. All cells were maintained in an incubator at 37 degrees C and 5% CO2 with 95% humidity. The PDC lines were cultured according to standard operating procedures established by the NCI PDMR. All PDCs were thawed and cultured in Matrigel-coated flasks prepared with a working solution of 1X Ham's F-12 nutrient mix, without supplementation (Invitrogen, Waltham, MA, cat. 11765054), 100 U/mL penicillin-streptomycin (Invitrogen, cat. 15140122), and 2.5% Matrigel (Corning Inc., Corning, NY, cat. 354248) for the first three passages. The 362531-283-R-J2-PDC and 782815-120-R-J1-PDC lines were cultured in 6C/Colon 1B media, which includes advanced DMEM/F-12 (Thermo Fisher Scientific, cat. 12634028), 10 mM HEPES (Thermo Fisher Scientific, cat. 15630080), 1X GlutaMAX supplement (Thermo Fisher Scientific, cat. 35050061), 0.1 mg/mL primocin (InvivoGen, San Diego, CA, cat. ant-pm-2), 10% defined fetal bovine serum, heat inactivated (HyClone Laboratories Inc., Logan, UT, cat. SH30070.03HI), 50% L-WRN conditioned media (ATCC, cat. CRL-3276), 1.25 mM N-Acetyl-L-cysteine (Sigma-Aldrich, cat. A9165), 10 mM nicotinamide (Sigma-Aldrich, cat. N0636), 1X B-27 supplement (Thermo Fisher Scientific, cat. 17504044), 1X N-2 supplement (Thermo Fisher Scientific, cat. 17502048), 50 ng/mL human EGF (Thermo Fisher Scientific, cat. PHG0311), and 10 microM Y-27632 dihydrochloride (Tocris Bioscience, cat. 1254). The K12877-001-R-J1-PDC line was cultured in 6I media, which includes all 6C/Colon 1B media plus 10 ng/mL human FGF-10 (PeproTech, cat. 100-26), 1 ng/mL human FGF-2 (PeproTech, cat. 100-18B), 1 µM prostaglandin E2 (Tocris Bioscience, cat. 2296), […] hydrocortisone (Sigma-Aldrich, cat. H4001), and […] bovine insulin (Sigma-Aldrich, cat. I6634). The K86415-001-R-J1-PDC line was cultured in 6D media, which includes all 6C/Colon 1B media components minus the L-WRN conditioned media. The 485176-168-R4-J1-PDC was cultured in PANC media, which includes all 6C/Colon 1B media plus 100 ng/mL human FGF-10 (PeproTech, cat. 100-26), 500 nM SB-431542 (Selleckchem, cat. S1067), and 10 nM gastrin (Tocris Bioscience, cat. 3006). […]

[1] = curve of first compound, second compound 0.0316 µM
[2] = curve of first compound, second compound 0.1 µM
[3] = curve of first compound, second compound 0.316 µM
[4] = curve of first compound, second compound 1 µM
[5] = curve of first compound, second compound 3.16 µM
[6] = curve of first compound, second compound 10 µM
[7] = second compound 0.0316 µM, first compound 0.00316 µM
[8] = second compound 0.0316 µM, first compound 0.01 µM
[9] = second compound 0.0316 µM, first compound 0.0316 µM
[10] = second compound 0.0316 µM, first compound 0.1 µM
[11] = second compound 0.0316 µM, first compound 0.316 µM
[12] = second compound 0.0316 µM, first compound 1 µM
[13] = second compound 0.1 µM, first compound 0.00316 µM
[14] = second compound 0.1 µM, first compound 0.01 µM
[15] = second compound 0.1 µM, first compound 0.0316 µM
[16] = second compound 0.1 µM, first compound 0.1 µM
[17] = second compound 0.1 µM, first compound 0.316 µM
[18] = second compound 0.1 µM, first compound 1 µM
[19] = second compound 0.316 µM, first compound 0.00316 µM
[20] = second compound 0.316 µM, first compound 0.01 µM
[21] = second compound 0.316 µM, first compound 0.0316 µM
[22] = second compound 0.316 µM, first compound 0.1 µM
[23] = second compound 0.316 µM, first compound 0.316 µM
[24] = second compound 0.316 µM, first compound 1 µM
[25] = second compound 1 µM, first compound 0.00316 µM
[26] = second compound 1 µM, first compound 0.01 µM
[27] = second compound 1 µM, first compound 0.0316 µM
[28] = second compound 1 µM, first compound 0.1 µM
[29] = second compound 1 µM, first compound 0.316 µM
[30] = second compound 1 µM, first compound 1 µM
[31] = second compound 3.16 µM, first compound 0.00316 µM
[32] = second compound 3.16 µM, first compound 0.01 µM
[33] = second compound 3.16 µM, first compound 0.0316 µM
[34] = second compound 3.16 µM, first compound 0.1 µM
[35] = second compound 3.16 µM, first compound 0.316 µM
[36] = second compound 3.16 µM, first compound 1 µM
[37] = second compound 10 µM, first compound 0.00316 µM
[38] = second compound 10 µM, first compound 0.01 µM
[39] = second compound 10 µM, first compound 0.0316 µM
[40] = second compound 10 µM, first compound 0.1 µM
[41] = second compound 10 µM, first compound 0.316 µM
[42] = second compound 10 µM, first compound 1 µM
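For viability, T/C in this document: spheroids exposed to agents for seven days before readout; 100% = DMSO vehicle control wells.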

CC(=O)OC12COC1CC(O)C1(C)C(=O)C(O)C3=C(C)C(OC(=O)C(O)C(NC(=O)OC(C)(C)C)c4ccccc4)CC(O)(C(OC(=O)c4ccccc4)C21)C3(C)C (stereo not given)
< 31.6 nM: IC50 (curve of compound)
inactive: viability, T/C (compound 0.0316 µM) 27.8% [middle of 4 runs] | viability, T/C (compound 0.1 µM) 33.9% [middle of 4 runs] | viability, T/C (compound 0.316 µM) 37.7% [middle of 4 runs] | viability, T/C (compound 1 µM) 49.9% [middle of 4 runs] | viability, T/C (compound 3.16 µM) 73.4% [middle of 4 runs] | viability, T/C (compound 10 µM) 64.2% [middle of 4 runs]

Cc1nc(N2CCC3(CC2)COC(C)C3N)c(CO)nc1Sc1ccnc(N)c1Cl (stereo not given)
> 10000 nM: IC50 (curve of compound)
inactive: viability, T/C (compound 0.0316 µM) 104% [middle of 4 runs] | viability, T/C (compound 0.1 µM) 103% [middle of 4 runs] | viability, T/C (compound 0.316 µM) 111% [middle of 4 runs] | viability, T/C (compound 1 µM) 112% [middle of 4 runs] | viability, T/C (compound 3.16 µM) 112% [middle of 4 runs] | viability, T/C (compound 10 µM) 108% [middle of 4 runs]

NC1c2ccccc2OC12CCN(c1cnc3c(N4CCCc5ncccc54)n[nH]c3n1)CC2 (stereo not given)
> 10000 nM: IC50 (curve of compound)
inactive: viability, T/C (compound 0.0316 µM) 114% [middle of 4 runs] | viability, T/C (compound 0.1 µM) 106% [middle of 4 runs] | viability, T/C (compound 0.316 µM) 115% [middle of 4 runs] | viability, T/C (compound 1 µM) 112% [middle of 4 runs] | viability, T/C (compound 3.16 µM) 114% (2×) and 102% and 108% | viability, T/C (compound 10 µM) 105% (2×) and 86.2% and 87.2%

C=CC(=O)Nc1cc(Nc2nccc(-c3cn(C)c4ccccc34)n2)c(OC)cc1N(C)CCN(C)C + C#Cc1c(F)ccc2cc(O)cc(-c3ncc4c(N5CC6CCC(C5)N6)nc(OCC56CCCN5CC(F)C6)nc4c3F)c12
> 1000 nM: IC50 [1] | IC50 [2] | IC50 [3] | IC50 [4] | IC50 [5] | IC50 [6]
inactive: viability, T/C [7] 117% | viability, T/C [8] 110% | viability, T/C [9] 109% | viability, T/C [10] 103% | viability, T/C [11] 110% | viability, T/C [12] 95.6% | viability, T/C [13] 103% | viability, T/C [14] 107% | viability, T/C [15] 106% | viability, T/C [16] 100% | viability, T/C [17] 113% | viability, T/C [18] 103% | viability, T/C [19] 111% | viability, T/C [20] 106% | viability, T/C [21] 106% | viability, T/C [22] 107% | viability, T/C [23] 111% | viability, T/C [24] 104% | viability, T/C [25] 114% | viability, T/C [26] 113% | viability, T/C [27] 119% | viability, T/C [28] 122% | viability, T/C [29] 105% | viability, T/C [30] 115% | viability, T/C [31] 115% | viability, T/C [32] 116% | viability, T/C [33] 114% | viability, T/C [34] 117% | viability, T/C [35] 112% | viability, T/C [36] 114% | viability, T/C [37] 123% | viability, T/C [38] 118% | viability, T/C [39] 110% | viability, T/C [40] 128% | viability, T/C [41] 120% | viability, T/C [42] 93.7%

O=C(c1ccc(F)c(F)c1Nc1ccc(I)cc1F)N1CC(O)([C@@H]2CCCCN2)C1 + C#Cc1c(F)ccc2cc(O)cc(-c3ncc4c(N5CC6CCC(C5)N6)nc(OCC56CCCN5CC(F)C6)nc4c3F)c12
active: viability, T/C [9] 7.85% | viability, T/C [10] 3.11% | viability, T/C [11] 3.11% | viability, T/C [12] 1.68% | viability, T/C [15] 7.58% | viability, T/C [16] 3.19% | viability, T/C [17] 2.68% | viability, T/C [18] 1.61% | viability, T/C [21] 6.51% | viability, T/C [22] 5.25% | viability, T/C [23] 2.94% | viability, T/C [24] 1.38% | viability, T/C [27] 7.2% | viability, T/C [28] 3.22% | viability, T/C [29] 2.12% | viability, T/C [30] 2.67% | viability, T/C [33] 8.19% | viability, T/C [34] 3.45% | viability, T/C [35] 2.09% | viability, T/C [36] 3.3% | viability, T/C [39] 8.65% | viability, T/C [40] 6.24% | viability, T/C [41] 2.33% | viability, T/C [42] 2.35%
9.02 nM: IC50 [6]
8.97 nM: IC50 [1]
inactive: viability, T/C [7] 84.7% | viability, T/C [8] 46.4% | viability, T/C [13] 70.8% | viability, T/C [14] 50.3% | viability, T/C [19] 77.1% | viability, T/C [20] 58.5% | viability, T/C [25] 83.2% | viability, T/C [26] 53.4% | viability, T/C [31] 77.6% | viability, T/C [32] 53.1% | viability, T/C [37] 91.4% | viability, T/C [38] 46%
10.1 nM: IC50 [2]
12.1 nM: IC50 [3]
10.9 nM: IC50 [4]
10.8 nM: IC50 [5]
